Assay results published in patent EP0359821A1, “METHOD OF STERILIZING PLANT ANTHERS” (priority 1988, dated 1989).
Where two headings read alike, the source gives them in different places.

Legend:
[1] = system: Diploider Roggen Sorte Chulpan; assay: Field trial of gametocidal activity, diploid rye Chulpan; type: in vivo; conditions: single compounds, 1% aqueous emulsion, 10 kg/ha
Text: Bei Weizen und Tritikale werden Einzelisolatoren verwendet.
Pflanzen von diploidem Roggen Sorte Chulpan werden in der V. oder VI.
Der Verbrauch an Sterilisationsmitteln beträgt 10 kg/ha.

[2] = system: Winterweizens Sorte Mironovskaya 808; assay: Field trial of gametocidal activity (anther sterilisation), winter wheat; type: in vivo, Weizen; conditions: 2% aqueous emulsion, 20 kg/ha; for response vs control in vivo at 20000 g/ha: control = 100, read-out: Prozentsatz des Ansetzens bei freier Bestäubung
[3] = in vivo; conditions: mouse
[4] = system: Tetraploider Roggen Sorte Belta; assay: Field trial of gametocidal activity, tetraploid rye Belta; type: in vivo; conditions: 1% aqueous emulsion, 10 kg/ha
[5] = system: Diploider Roggen Sorte Kharkovskaya 55; assay: Field trial of gametocidal activity, diploid rye Kharkovskaya 55; conditions: 1% aqueous emulsion, 6 kg/ha
[6] = system: Diploider Roggen Sorte Gibrid 340/65; assay: Field trial of gametocidal activity, diploid rye Gibrid 340/65; conditions: Gibrid 340/65 (text: 312/65), 1% aqueous emulsion, 10 kg/ha
[7] = system: Sommerweizen Sorte Moskovskaya 35; assay: Field trial of gametocidal activity, spring wheat; type: in vivo, Weizen; conditions: 1% aqueous emulsion
[8] = system: Sonnenblume Sorte Peredovik; assay: Field trial of pollen sterilisation, sunflower Peredovik; type: in vivo; conditions: 0,2% aqueous emulsion, 1,2 kg/ke (so in the source)
Text: Pflanzen der Sonnenblume Sorte Peredovik werden in der V. oder VI.
Der Verbrauch an Sterilisationsmittel beträgt 1,2 kg/ke.

[9] = system: Sonnenblume Linie VK 119; assay: Field trial of pollen sterilisation, sunflower line VK 119; conditions: 0,2% aqueous emulsion, 1,2 kg/ha
[10] = system: Hirse Sorte Mironovskoe 94; assay: Field trial of gametocidal activity, millet Mironovskoe 94; type: in vivo; conditions: 1% aqueous emulsion, 10 kg/ha
[11] = system: Roggen Sorte Voskhod 2; assay: Field trial of gametocidal activity, diploid rye Voskhod 2; type: in vivo; conditions: 1% aqueous emulsion, 8 kg/ha; for Anzahl von Körnern der Ähre bei freier Bestäubung / Anzahl von Körnern der Ähre im Isolator / Prozentsatz der Sterilität: V. or VI. period; for Prozentsatz des Ansetzens bei freier Bestäubung: control = 100
[12] = V. or VI. period of organogenesis
[13] = Chulpan, V. or VI. period, listed as Beispiel 56
[14] = V. or VI. period, listed as Beispiel 7I
[15] = V. or VI. period of organogenesis, read-out: Prozentsatz der Sterilität
[16] = control = 100, read-out: Prozentsatz des Ansetzens bei freier Bestäubung

For `CCC(CO)(CO)CBr` [Beispiel 53, monobromsubstituiertem Etriol], the “Anzahl von Körnern der Ähre bei freier Bestäubung” value ([1]; Chulpan, V. or VI. period) was 55,8, the “Anzahl von Körnern der Ähre im Isolator” value ([1]; Chulpan, V. or VI. period) was 4,8 and the percent sterility at 10000 g/ha ([1]; Chulpan, V. or VI. period, read-out: Prozentsatz der Sterilität) was 91.8%. The response vs control in vivo at 10000 g/ha ([1]; Chulpan, control = 100, read-out: Prozentsatz des Ansetzens bei freier Bestäubung) was 98.4%.

For `O=C(COc1cc(F)c(Cl)cc1Cl)OCCCl` [Beispiel I0, β -Chloräthylester der 2,4-Dichlor-5-fluornhenoxyessig-säure], the “Anzahl von Körnern der Ähre im Isolator” value [2, 12] was 0,6, the response vs control in vivo at 20000 g/ha [2] was 74.3% and the LD50 ([3]; LD50, weisse Mäuse) was 500 mg/kg.

With `O=C(O)c1ccccc1F` [Beispiel I4, Monoäthanolaminsalz der Orthofluorbenzoesäure] the “Anzahl von Körnern der Ähre bei freier Bestäubung” value [1, 13] was 56,2, the “Anzahl von Körnern der Ähre im Isolator” value [1, 13] was 0,1 and the “Prozentsatz des Ansetzens bei freier Bestäubung” value ([1]; Chulpan, control = 100, listed as Beispiel 56) was 99,1%. For the same molecule, the “Anzahl von Körnern der Ähre bei freier Bestäubung” value [4, 14] was 43,5, the “Anzahl von Körnern der Ähre im Isolator” value [4, 14] was 0,0 and the “Prozentsatz des Ansetzens bei freier Bestäubung” value ([4]; control = 100, listed as Beispiel 7I) was 98,2%. For the same molecule, the “Anzahl von Körnern der Ähre bei freier Bestäubung” value [2, 12] was 36,2, the “Anzahl von Körnern der Ähre im Isolator” value [2, 12] was 5,3 and the pest or weed control at 20000 g/ha [2, 15] was 85.9%. For the same molecule, the response vs control in vivo at 20000 g/ha [2] was 89.3% and the LD50 ([3]; LD50, weisse Mäuse) was 700 mg/kg.

In the case of `O=C(COc1ccc(F)cc1)OCCCl` [Beispiel I, β-Chloräthylester der 4-Fluorphenoxyessigsäure], the “Anzahl von Körnern der Ähre bei freier Bestäubung” value ([5]; V. and VI. periods) was 42,7, the “Anzahl von Körnern der Ähre im Isolator” value ([5]; V. and VI. periods) was 0,0 and the “Prozentsatz der Sterilität” value ([5]; V. and VI. periods) was 100%. The “Prozentsatz des Ansetzens bei freier Bestäubung” value ([5]; control = 100) was 94,7%, the “Anzahl von Körnern der Ähre bei freier Bestäubung” value ([6]; V. and VI. periods) was 45,6 and the “Anzahl von Körnern der Ähre im Isolator” value ([6]; V. and VI. periods) was 0,0. For the same molecule, the “Prozentsatz der Sterilität” value ([6]; V. and VI. periods) was 100%, the “Prozentsatz des Ansetzens bei freier Bestäubung” value ([6]; control = 100) was 84,4% and the “Anzahl von Körnern der Ähre bei freier Bestäubung” value [2, 12] was 30,4. The percent sterility at 20000 g/ha [2, 15] was 99.8%, the “Anzahl von Körnern der Ähre bei freier Bestäubung” value ([7]; 10 kg/ha, V. period) was 23,8 and the “Anzahl von Körnern der Ähre im Isolator” value ([7]; 10 kg/ha, V. period) was 0,4. The percent sterility at 10000 g/ha ([7]; 10 kg/ha, V. period, read-out: Prozentsatz der Sterilität) was 98.5%, the response vs control in vivo [7, 16] was 86.5% and the LD50 ([3]; LD50, weisse Mäuse) was 400 mg/kg.

In the case of `ClCC1CO1` (stereo not shown) [Beispiel II, 3-Chlor-1,2-epoxypropan], the Pollensterilität in % [8] was 100%, the “Ansetzen von Achänen bei freier Bestäubung in %” value ([8]; V. or VI. period) was 82,3% and the “Ansetzen von Achänen im Isolator bei der Bestäubung mit dem Pollengemisch in %” value ([8]; V. or VI. period) was 0,0%. The “Anzahl von Körnern der Ähre bei freier Bestäubung” value ([1]; Chulpan, V. or VI. period) was 48,9, the “Anzahl von Körnern der Ähre im Isolator” value ([1]; Chulpan, V. or VI. period) was 0,0 and the pest or weed control at 10000 g/ha ([1]; read-out: Prozentsatz der Sterilität, Chulpan, V. or VI. period) was 100%. For the same molecule, the response vs control in vivo at 10000 g/ha ([1]; read-out: Prozentsatz des Ansetzens bei freier Bestäubung, Chulpan, control = 100) was 86.2%, the “Ansetzen von Achänen bei freier Bestäubung in %” value [9] was 85,0% and the “Ansetzen von Achänen im Isolator bei der Bestäubung mit dem Pollengemisch in %” value [9] was 0,0%. The Pollensterilität in % [9] was 100%, the pest or weed control at 20000 g/ha [2, 15] was 99.8% and the response vs control in vivo at 20000 g/ha [2] was 77.5%. The “Anzahl von Körnern der Rispe bei freier Bestäubung” value ([10]; V. or VI. period) was 312,3, the “Anzahl von Körnern der Rispe im Isolator” value ([10]; V. or VI. period) was 0,0 and the pest or weed control at 10000 g/ha ([10]; V. or VI. period, read-out: Prozentsatz der Sterilität) was 100%. For the same molecule, the response vs control in vivo at 10000 g/ha [10, 16] was 82.2%, the “Anzahl von Körnern der Ähre bei freier Bestäubung” value [11] was 51,7 and the “Anzahl von Körnern der Ähre im Isolator” value [11] was 0,6. The “Prozentsatz der Sterilität” value [11] was 98,8%, the “Prozentsatz des Ansetzens bei freier Bestäubung” value [11] was 94,7% and the LD50 [3] was 238 mg/kg.

For “Äthanolaminsalz der Tetraphthalsäure [Beispiel 34]”, the “Anzahl von Körnern der Ähre bei freier Bestäubung” value [11] was 54,0, the “Anzahl von Körnern der Ähre im Isolator” value [11] was 1,2 and the “Prozentsatz der Sterilität” value [11] was 97,6%. The “Prozentsatz des Ansetzens bei freier Bestäubung” value [11] was 98,9%.
